According to patent US20080069899A1, “Pharmaceutical Compositions Comprising Beta-Carboline Derivatives and Use Thereof for the Treatment of Cancer” (priority 2004, published 2008):
“And” between values parts separate entries of the source, which are not always exact repeats. Equal entries are not always repeated. Structures can show the parent of a compound that is named as a salt. Where two headings read alike, the source gives them in different places.

What was measured:
[1] = system: HT29 human colon tumor cells; assay: in vivo antineoplastic activity, NOD-SCID mice xenografted with HT29 human tumour cells
Protocol: (§1) The animal model chosen is that of severe combined immunodeficient (NOD-SCID) mice having received a xenograft of human tumor cells.
(§2) Male and female NOD-SCID mice, more than 3 months old, were raised in an environment of strict sterility, in an insulator ventilated with filtered air and sterilized, at 22° C. and 40% humidity, with a day-12 h/night-12 h cycle. The cages, feeding bottles and the water were sterilized in an autoclave at 120° C. for 30 minutes and the food as well as the bedding were treated with γ-irradiation. All handling took place in aseptic conditions under a laminar flow hood.
The mice were subjected to general anaesthesia by i.p. injection of 0.3 to 0.4 ml of hypnomidate at 2 mg/ml. 1×10^7 HT29 human colon tumor cells in suspension in 200 μl of PBS were then injected sub-cutaneously, into the backs of the mice. […]
50 mg of 5-fluorouracil (Sigma) were dissolved in 8 ml of water and the solution obtained was sterilized by filtration on a membrane with 0.22 μm porosity. […]

[2] = Protocol: as §1, §2
150 mg of cyclophosphamide (Sigma) were dissolved in 8 ml of water and the solution obtained was sterilized by filtration on a membrane with 0.22 μm porosity.
50 mg of 5-fluorouracil (Sigma) were dissolved in 8 ml of water and the solution obtained was sterilized by filtration on a membrane with 0.22 μm porosity.
100 mg of dihydrated harmalacidine hydrochloride were dissolved in 8 ml of water and the solution obtained was sterilized by filtration on a membrane with 0.22 μm porosity. The mice received either 25, 50, or 100 mg/kg/day of harmalacidine alone, or a mixture of 25 or 50 mg/kg/day of harmalacidine+50 mg/kg/day of cyclophosphamide.

[3] = system: HBMEC (immortalized human bone marrow endothelial cell lines); assay: in vitro cytotoxicity test (neutral red, 96-well microplate); format: cell-based; conditions: 96 h, incubation 4 days
Protocol: (§3) The cytotoxic effects of the different alkaloid extracts of P. harmala were studied on several cell lines: • human leukemia cell lines: K562 and Jurkat (leukemia), U937 (myeloma), • human solid tumor cell lines: KB (epithelioma of the nasopharynx) and HT29 (colon), • immortalized human bone marrow endothelial cell lines: HBMEC.
(§4) The cells are cultured in an oven under a 5% CO2 atmosphere and at 37° C., in RPMI 1640 medium for K562, Jurkat, U937 and HT29 and DMEM for KB, supplemented with 10% foetal calf serum, 0.01% penicillin-streptomycin and L-glutamine 2 mM and in EGM2 medium for the HBMEC cells.
(§5) The cytotoxicity test is carried out in a 96-well microplate in the presence of the extract to be tested at varying concentrations of 40, 20, 10, 5, 1, 0.5 μg/ml and in the absence of product, after incubation for 4 days at 37° C. On the 3rd day, a solution of neutral red is added which is absorbed by living cells. The optical density (OD) of dye released by lyzed cells is measured at 540 nm by an Elisa plate reader. The toxicity (% inhibition of growth) is inversely proportional to the optical density.
(§6) The percentage of inhibition is defined as being the difference between the OD without product and the OD in the presence of product compared to the OD without product.
(§7) The concentration inhibiting 50% of cell growth is obtained from the curve representing the percentage of inhibition as a function of the logarithm of the concentration.

Jurkat (leukemia) = assay: as above; format: cell-based; conditions: Homo sapiens, 96 h, incubation 4 days
Protocol: as §3, §4, §5, §6, §7

K562 (leukemia) = assay: as above; format: cell-based; conditions: Homo sapiens, incubation 4 days
Protocol: as §3, §4, §5, §6, §7

[4] = system: KB (epithelioma of the nasopharynx); assay: as above; format: cell-based; conditions: Homo sapiens, 96 h, incubation 4 days
Protocol: as §3, §4, §5, §6, §7

U937 (myeloma) = assay: as above; format: cell-based; conditions: Homo sapiens, U-937, 96 h, incubation 4 days
Protocol: as §3, §4, §5, §6, §7

[5] = system: malignant and endothelial cells tested; assay: summary of in vitro cytotoxicity over all lines tested; format: cell-based, human; conditions: range over the cell lines, read-out: IC50 vis-à-vis malignant and endothelial cells tested
Protocol: as §3, §4, §5, §6, §7
To summarize, the IC50 vis-à-vis malignant and endothelial cells tested is the following: […]

O=c1[nH]cc(F)c(=O)[nH]1 [5-fluorouracil]
Average volume of the tumours of the treated mice compared to the average volume of the tumours of the non-treated mice (T/C) (%) ([1]; 5-fluorouracil 3 mg/kg/day alone per os, Day 15): 43%
Average volume of the tumours of the treated mice compared to the average volume of the tumours of the non-treated mice (T/C) (%) ([1]; 5-fluorouracil 3 mg/kg/day alone per os, Day 30): 56%
Average volume of the tumours of the treated mice compared to the average volume of the tumours of the non-treated mice (T/C) (%) ([1]; 5-fluorouracil 3 mg/kg/day alone per os, Day 40): 66%
Average volume of the tumours of the treated mice compared to the average volume of the tumours of the non-treated mice (T/C) (%) ([1]; 5-fluorouracil 3 mg/kg/day alone per os, Day 50): 61%
Average volume of the tumours of the treated mice compared to the average volume of the tumours of the non-treated mice (T/C) (%) ([1]; 5-fluorouracil 3 mg/kg/day alone per os, Day 60): 86%
Average volume of the tumours of the treated mice compared to the average volume of the tumours of the non-treated mice (T/C) (%) ([1]; 5-fluorouracil 6 mg/kg/day alone per os, Day 15): 37%
Average volume of the tumours of the treated mice compared to the average volume of the tumours of the non-treated mice (T/C) (%) ([1]; 5-fluorouracil 6 mg/kg/day alone per os, Day 30): 53%
Average volume of the tumours of the treated mice compared to the average volume of the tumours of the non-treated mice (T/C) (%) ([1]; 5-fluorouracil 6 mg/kg/day alone per os, Day 40): 60%
Average volume of the tumours of the treated mice compared to the average volume of the tumours of the non-treated mice (T/C) (%) ([1]; 5-fluorouracil 6 mg/kg/day alone per os, Day 50): 64%
Average volume of the tumours of the treated mice compared to the average volume of the tumours of the non-treated mice (T/C) (%) ([1]; 5-fluorouracil 6 mg/kg/day alone per os, Day 60): 70%
Average volume of the tumours of the treated mice compared to the average volume of the tumours of the non-treated mice (T/C) (%) ([1]; 5-fluorouracil 9 mg/kg/day alone per os, Day 15): 41%
Average volume of the tumours of the treated mice compared to the average volume of the tumours of the non-treated mice (T/C) (%) ([1]; 5-fluorouracil 9 mg/kg/day alone per os, Day 30): 41%
Average volume of the tumours of the treated mice compared to the average volume of the tumours of the non-treated mice (T/C) (%) ([1]; 5-fluorouracil 9 mg/kg/day alone per os, Day 40): 59%
Average volume of the tumours of the treated mice compared to the average volume of the tumours of the non-treated mice (T/C) (%) ([1]; 5-fluorouracil 9 mg/kg/day alone per os, Day 50): 52%
Average volume of the tumours of the treated mice compared to the average volume of the tumours of the non-treated mice (T/C) (%) ([1]; 5-fluorouracil 9 mg/kg/day alone per os, Day 60): 59%
Average volume of the tumours of the treated mice compared to the average volume of the tumours of the non-treated mice (T/C) (%) ([1]; 5-fluorouracil 12 mg/kg/day alone per os, Day 15): 73%
Average volume of the tumours of the treated mice compared to the average volume of the tumours of the non-treated mice (T/C) (%) ([1]; 5-fluorouracil 12 mg/kg/day alone per os, Day 30): 66%
Average volume of the tumours of the treated mice compared to the average volume of the tumours of the non-treated mice (T/C) (%) ([1]; 5-fluorouracil 12 mg/kg/day alone per os, Day 40): 54%
Average volume of the tumours of the treated mice compared to the average volume of the tumours of the non-treated mice (T/C) (%) ([1]; 5-fluorouracil 12 mg/kg/day alone per os, Day 50): 47%
Average volume of the tumours of the treated mice compared to the average volume of the tumours of the non-treated mice (T/C) (%) ([1]; 5-fluorouracil 12 mg/kg/day alone per os, Day 60): 59%
T/C ([1]; 5-fluorouracil 24 mg/kg/d, alternating 6 days of treatment and 6 days of rest, until the 20th day of the treatment): 17%
Average volume of the tumours of the treated mice compared to the average volume of the tumours of the non-treated mice (T/C) (%) ([1]; 5-fluorouracil 24 mg/kg/day alone, alternating 6 days of treatment and 6 days of rest, Day 15): 17%
Average volume of the tumours of the treated mice compared to the average volume of the tumours of the non-treated mice (T/C) (%) ([1]; 5-fluorouracil 24 mg/kg/day alone, alternating 6 days of treatment and 6 days of rest, Day 30): 54%
Average volume of the tumours of the treated mice compared to the average volume of the tumours of the non-treated mice (T/C) (%) ([1]; 5-fluorouracil 24 mg/kg/day alone, alternating 6 days of treatment and 6 days of rest, Day 40): 54%
day of administration at which the dose becomes lethal ([2]; both, NOD-SCID, mouse, in vivo): 35 to 45 days

CC[C@@]1(O)C(=O)OCc2c1cc1n(c2=O)Cc2cc3ccccc3nc2-1 [Camptothecin, reference compound]
IC50 [3]: 0.025 µg/mL and 70 nM
IC50 (Jurkat (leukemia)): 0.003 µg/mL and 90 nM
IC50 (K562 (leukemia); 96 h): 0.014 µg/mL and 40 nM
IC50 [4]: 0.035 µg/mL and 100 nM
IC50 (U937 (myeloma)): 0.023 µg/mL and 70 nM

O=C1NCCc2c1[nH]c1cc(O)ccc21 [Demethyl-harmalacidine (D), demethyl harmalacidine]
IC50 [3]: 17 µg/mL and 84.1 µM
IC50 (Jurkat (leukemia)): 8.5 µg/mL and 42 µM
IC50 (K562 (leukemia); K562, 96 h): 20 µg/mL and 99 µM
IC50 [4]: 10 µg/mL and 49.5 µM

COc1ccc2c(c1)[nH]c1c(C)nccc12 [Harmine•HCl•2H2O, dihydrated harmine hydrochloride]
IC50 ([5]; hydrochloride): 10.5 to 35 µM

OC1CCN2Cc3ccccc3N=C12 (centres unmarked) [Peganine (B), Peganine]
IC50 (Jurkat (leukemia)): 75 µg/mL and 399 µM
IC50 (K562 (leukemia); K562, 96 h): 35 µg/mL and 186 µM
IC50 [4]: > 50 µg/mL and > 266 µM

O=P1(N(CCCl)CCCl)NCCCO1 (centres unmarked) [cyclophosphamide]
Average volume of the tumours of the treated mice compared to the average volume of the tumours of the non-treated mice (T/C) (%) ([1]; cyclophosphamide 50 mg/kg/day alone, Day 15): 63%
Average volume of the tumours of the treated mice compared to the average volume of the tumours of the non-treated mice (T/C) (%) ([1]; cyclophosphamide 50 mg/kg/day alone, Day 30): 42%
Average volume of the tumours of the treated mice compared to the average volume of the tumours of the non-treated mice (T/C) (%) ([1]; cyclophosphamide 50 mg/kg/day alone, Day 40): 37%
Average volume of the tumours of the treated mice compared to the average volume of the tumours of the non-treated mice (T/C) (%) ([1]; cyclophosphamide 50 mg/kg/day alone, Day 50): 36%
Average volume of the tumours of the treated mice compared to the average volume of the tumours of the non-treated mice (T/C) (%) ([1]; cyclophosphamide 50 mg/kg/day alone, Day 60): 32%
Average volume of the tumours of the treated mice compared to the average volume of the tumours of the non-treated mice (T/C) (%) ([1]; cyclophosphamide 100 mg/kg/day alone, Day 15): 47%
Average volume of the tumours of the treated mice compared to the average volume of the tumours of the non-treated mice (T/C) (%) ([1]; cyclophosphamide 100 mg/kg/day alone, Day 30): 25%
Average volume of the tumours of the treated mice compared to the average volume of the tumours of the non-treated mice (T/C) (%) ([1]; cyclophosphamide 100 mg/kg/day alone, Day 40): 18%
Average volume of the tumours of the treated mice compared to the average volume of the tumours of the non-treated mice (T/C) (%) ([1]; cyclophosphamide 100 mg/kg/day alone, Day 50): 14%
Average volume of the tumours of the treated mice compared to the average volume of the tumours of the non-treated mice (T/C) (%) ([1]; cyclophosphamide 100 mg/kg/day alone, Day 60): 15%
Average volume of the tumours of the treated mice compared to the average volume of the tumours of the non-treated mice (T/C) (%) ([1]; cyclophosphamide 150 mg/kg/day alone, Day 15): 4%
tolerance of the dose ([2]; cyclophosphamide 150 mg/kg/day alone, all died around the 15th day of treatment): did not tolerate

CC[C@]1(O)C[C@@H]2CN(CCc3c([nH]c4ccccc34)[C@@](C(=O)OC)(c3cc4c(cc3OC)N(C)[C@H]3[C@@](O)(C(=O)OC)[C@H](OC(C)=O)[C@]5(CC)C=CCN6CC[C@]43[C@@H]65)C2)C1 [vinblastine, reference compound]
antineoplastic activity ([1]; vinblastine between 0.125 and 0.5 mg/kg/day, sub-cutaneous administration, until the 40th day): dose-dependent
tolerance of the dose ([2]; mouse, in vivo): not tolerated

dihydrated harmalacidine hydrochloride
IC50 [5]: 34.4 to 134 µM
